The nature of assay [1]: (§1) Inhibition of Saccharomyces cerevisiae alpha-glucosidase using pNPG as substrate preincubated for 10 mins followed by substrate addition measured after 20 mins by spectrophotometric analysis.
Assay [2] concerns Saccharomyces cerevisiae. Described as §1.

By IC50 is commonly meant the point on the concentration scale where inhibition reaches its midpoint. High values mean weaker potency in that assay, low ones greater potency in that assay. In assay [1], `C[C@H]1O[C@H](O[C@H]2[C@H](O)[C@@H](O)[C@@H](O[C@H]3[C@H](O)[C@@H](O)C(O)O[C@@H]3CO)O[C@@H]2CO)[C@H](O)[C@@H](O)[C@@H]1N[C@H]1C=C(CO)[C@@H](O)[C@H](O)[C@H]1O` (stereo not given in full) [ACARBOSE] had an IC50 of 545 µM. Consider `C[C@@H]1OC(=O)c2c(O)cccc2[C@H]1O`, for which the IC50 in assay [1] was found to be 441 µM. The inhibition entry in assay [2] was “Dose-dependent effect”. Turning to `C[C@@H]1OC(=O)c2c(O)cccc2[C@@H]1O`, half-maximal inhibition in assay [1] (IC50) required 549 µM. Moreover, the inhibition entry in assay [2] is “Dose-dependent effect”.

These data come from ChEMBL document CHEMBL3576768, “α-Glucosidase Inhibitors from a Xylaria feejeensis Associated with Hintonia latiflora” (J Nat Prod, 2015).
